Measurements reported in patent publication US6555114B1, “Immunodominant human T-cell epitopes of hepatitis C virus” (Innogenetics N.V., priority 1993, dated 2003).

How the values were obtained:
[1] = tested on: PBMC from 32 patients with chronic HCV; assay: T cell proliferation assay ((3H)-thymidine incorporation, stimulation index) with PBMC of chronic HCV patients; format: cell-based, human; conditions: for number of patients that recognized the single peptide: 8 proliferative responders to pools 2 and/or 3 among 11 interferon-responder HCV patients; for LPR in αIFN responders (summary of Table 7): both αIFN responders tested; for lymphoproliferative response (LPR) to peptide pools and single peptides: IFN responder, LPR to pools 2 and/or 3; for LPR in αIFN non-responders (summary of Table 7): two αIFN non-responders
[2] = tested on: PBMC's from 18 healthy control subjects; assay: T cell proliferation assay with PBMC of healthy control subjects; format: cell-based, human; conditions: 17 control subjects, 23 proliferation assays
Protocol: As controls for the specificity of the lymphoproliferative responses, 18 healthy individuals aged 25-58 years (mean 38.6), 10 males and 8 females were selected. These subjects were negative for HCV antibodies and HCV-RNA.
The medium used for all cell cultures consisted of RPMI 1640 supplemented with 25 mM HEPES, 2 mM L-glutamine, 50 U/ml penicillin and 50 μg/ml streptomycin (all from Gibco Europe, Gent, Belgium), 5×10^−5 M 2-mercaptoethanol (Sigma, St. Louis, Mo.) and 10% heat-inactivated pooled human AB serum. This AB serum was obtained from healthy blood donors with blood group AB^+ and was only used when antibodies to HCV and HCV-RNA were absent. This “complemented” RPMI 1640 medium will hereafter be designated “complete medium”.
PBMC were isolated from heparinized venous blood by isopycnic density centrifugation on Ficoll Hypaque (Lymphoprep, Nyegaard, Denmark) and suspended in complete medium. […] PBMC in 200 μl of complete medium were cultured in 96 well round-bottomed microplates (Falcon Plastics) in the absence (unstimulated controls) or presence of varying concentrations of antigens for 5 days at 37° C. in an atmosphere of 5% CO2 in air. 0.5 μCi (^3H)-thymidine was then added to each well and 16 to 20 h later the cultures were harvested onto glass fiber filters using a multichannel cell harvester (PHD, Cambridge, Mass.) to measure the incorporation of (^3H)-thymidine by liquid scintillation counting in an LKB-Wallac 8100 counter (LKB, Bromma, Sweden). Results are expressed as stimulation index (SI; mean cpm of antigen-stimulated cultures/mean cpm of control cultures). Proliferation was considered positive when stimulation index was >3. In some figures the results are expressed as cpm (mean cpm of antigen-stimulated cultures—mean cpm of control cultures). Standard deviations of the mean cpm of triplicate cultures were consistently below 10%.
To analyze and summarize the results of 135 assays performed in the 32 HCV patients, we have chosen to consider the response of an individual patient to a particular antigen preparation (peptide pools 1 to 9, NS1-5*, NS1-7* or NS3 protein) as significant when it induces SI's 3 in at least half of the assays performed. The results shown in Table 4 have been obtained using this scoring method. […] The start of the Interferon therapy serves as the reference point, week 0. None of the patients responded to all the antigens. PBMC's from 13 of 18 (72%) clinical responders and 12 of 14 (85%) non-responders proliferated in response to at least one antigen preparation. All but one antigen preparation, peptide pool 8, induced a proliferative response in at least one subject. The most frequent responses were to peptide pools 2 and 3. Whereas both interferon-responders and non-responders proliferated equally well to peptide pool 2 (56% and 57%, respectively), non-responders reacted less well to peptide pool 3 (29% or 4 of 14) than responders (44% or 8 of 18). […] Clinical non-responders to interferon therapy also reacted more frequently (57 or 8 of 14) upon stimulation with the NS3 protein than responders (24% or 4 of 17). However, none of these differences in proliferative response rates to peptide pools 3, 5 and 9 or to NS3 protein reached statistical significance ([…] in ^2-test). […] Indeed, 8 of 17 responders recognized one or both peptides while none of the non-responders did so. A summary of the results of all these proliferation assays is provided in FIG. 2, in which the response rates of the HCV patients as well as 18 healthy control subjects towards the 12 antigen preparations. Indeed, to establish the relevance of the proliferative responses observed in HCV patients, PBMC's from 18 healthy control subjects were stimulated with the same antigen preparations. Overall, 27 assays were performed: a single assay in 10 subjects, two in 7 volunteers and 3 in one individual. In 12 control subjects none of the antigens induced a proliferative response. […]

[3] = patient 618, pools 4 assays, single peptides 1 assay
[4] = patient 620, αIFN non-responder (NR), week 20 of αIFN therapy
[5] = patient 621, pools 4 assays, single peptides 1 assay
[6] = patient 626, pools 9 assays, single peptides 5 assays
[7] = patient 626, αIFN responder (R), week 14 of αIFN therapy
[8] = patient 627, αIFN non-responder (NR), week 54 of αIFN therapy
[9] = patient 632, pools 8 assays, single peptides 4 assays
[10] = patient 636, αIFN responder (R), week 28 of αIFN therapy
[11] = patient 637, αIFN non-responder (NR), week 45 of αIFN therapy
[12] = patient 639, pools 4 assays, single peptides 2 assays
[13] = patient 615, pools 2 assays, single peptides 1 assay
[14] = patient 634, pools 2 assays, single peptides 1 assay

| Substance | number of patients that recognized the single peptide [1] | LPR in αIFN responders (summary of Table 7) [1] | lymphoproliferative response (LPR) to peptide pools and single peptides [1, 3] | stimulation index (SI), T-cell recognition [1, 4] | lymphoproliferative response (LPR) to peptide pools and single peptides [1, 5] | lymphoproliferative response (LPR) to peptide pools and single peptides [1, 6] | stimulation index (SI), T-cell recognition [1, 7] | stimulation index (SI), T-cell recognition [1, 8] | lymphoproliferative response (LPR) to peptide pools and single peptides [1, 9] | stimulation index (SI), T-cell recognition [1, 10] | stimulation index (SI), T-cell recognition [1, 11] | lymphoproliferative response (LPR) to peptide pools and single peptides [1, 12] | number of control subjects that recognized the single peptide [2] | share of control subjects that recognized the single peptide [2] [%] | LPR in αIFN non-responders (summary of Table 7) [1] | lymphoproliferative response (LPR) to peptide pools and single peptides ([1]; patient 604, pools 2 assays, single peptides 1 assay) | lymphoproliferative response (LPR) to peptide pools and single peptides [1, 13] | lymphoproliferative response (LPR) to peptide pools and single peptides [1, 14] |
| --- | --- | --- | --- | --- | --- | --- | --- | --- | --- | --- | --- | --- | --- | --- | --- | --- | --- | --- |
| GGAARALAHGVRVLEDGVNY (hepatitis C virus) [C25] | 5 | highest LPR | + (significant when it induces SI's 3 in at least half of the assays performed) | — (Only SI equal or greater than 3 are shown.) | + (significant when it induces SI's 3 in at least half of the assays performed) | + (significant when it induces SI's 3 in at least half of the assays performed) | 6 | — (Only SI equal or greater than 3 are shown.) | + (significant when it induces SI's 3 in at least half of the assays performed) | 9.7 | — (Only SI equal or greater than 3 are shown.) | + (significant when it induces SI's 3 in at least half of the assays performed) |  |  |  |  |  |  |
| GRTWAQPGYPWPLYGNEGCG (hepatitis C virus) [C13] |  | highest LPR |  |  |  |  | 4.4 | — (Only SI equal or greater than 3 are shown.) |  | 6.3 | — (Only SI equal or greater than 3 are shown.) |  |  |  |  |  |  |  |
| KVIDTLTCGFADLMGYIPLV (hepatitis C virus) [C21] |  | highest LPR |  |  |  |  | 3.3 | 3.6 | + (significant when it induces SI's 3 in at least half of the assays performed) | — (Only SI equal or greater than 3 are shown.) | — (Only SI equal or greater than 3 are shown.) |  | 1 | 6 | high PLR |  |  |  |
| LMGYIPLVGAPLGGAARALA (hepatitis C virus) [C23] | 3 |  |  | 4.1 |  |  | — (Only SI equal or greater than 3 are shown.) | — (Only SI equal or greater than 3 are shown.) | + (significant when it induces SI's 3 in at least half of the assays performed) | — (Only SI equal or greater than 3 are shown.) | — (Only SI equal or greater than 3 are shown.) |  |  |  | high PLR | + (significant when it induces SI's 3 in at least half of the assays performed) | + (significant when it induces SI's 3 in at least half of the assays performed) |  |
| LPGCSFSIFLLALLSCLTVP [C29] |  |  |  | — (Only SI equal or greater than 3 are shown.) |  |  | — (Only SI equal or greater than 3 are shown.) | — (Only SI equal or greater than 3 are shown.) |  | — (Only SI equal or greater than 3 are shown.) | — (Only SI equal or greater than 3 are shown.) |  |  |  |  |  |  |  |
| LYGNEGCGWAGWLLSPRGSR (hepatitis C virus) [C15] |  |  |  |  |  |  | — (Only SI equal or greater than 3 are shown.) | — (Only SI equal or greater than 3 are shown.) |  | — (Only SI equal or greater than 3 are shown.) | — (Only SI equal or greater than 3 are shown.) |  |  |  |  |  |  |  |
| PTDPRRRSRNLGKVIDTLTC (hepatitis C virus) [C19] | 3 | highest LPR |  |  |  |  | — (Only SI equal or greater than 3 are shown.) | — (Only SI equal or greater than 3 are shown.) | + (significant when it induces SI's 3 in at least half of the assays performed) | 7.1 | — (Only SI equal or greater than 3 are shown.) | + (significant when it induces SI's 3 in at least half of the assays performed) |  |  |  |  |  | + (significant when it induces SI's 3 in at least half of the assays performed) |
| Tetanus toxoid [TT, reference compound] |  |  |  | 4.1 |  |  | 14.5 | 19.1 |  | 3.6 | 4.2 |  |  |  |  |  |  |  |
| VLEDGVNYATGNLPGCSFSI (hepatitis C virus) [C27] | 6 | highest LPR | + (significant when it induces SI's 3 in at least half of the assays performed) | — (Only SI equal or greater than 3 are shown.) | + (significant when it induces SI's 3 in at least half of the assays performed) | + (significant when it induces SI's 3 in at least half of the assays performed) | 8.2 | — (Only SI equal or greater than 3 are shown.) | + (significant when it induces SI's 3 in at least half of the assays performed) | 5.8 | — (Only SI equal or greater than 3 are shown.) | + (significant when it induces SI's 3 in at least half of the assays performed) |  |  |  |  | + (significant when it induces SI's 3 in at least half of the assays performed) | + (significant when it induces SI's 3 in at least half of the assays performed) |
